Assay results published in ChEMBL document CHEMBL5390217, “Structure Confirmation of Dechlorotrichotoxin A through Stereoselective Total Synthesis” (2023).
Active and inactive are the calls of the source. The rule behind the calls is not given here.

Tests used:
MCF7 [1] = test: Antiproliferative activity against human MCF7 cells assessed as inhibition of cell growth at 30 uM incubated for 48 hrs in presence of 10% FBS by CCK-8 assay relative to control; format: functional; design: scale not given: the % may be the effect or the level left
U-937 = test: Antiproliferative activity against human U-937 cells assessed as inhibition of cell growth at 30 uM incubated for 48 hrs in presence of 10% FBS by CCK-8 assay relative to control; format: functional; design: scale not given: the % may be the effect or the level left
MCF7 [2] = test: Antiproliferative activity against human MCF7 cells assessed as inhibition of cell growth at 30 uM incubated for 48 hrs in presence of 10% FBS by CCK-8 assay; format: functional, cell-based

`C=CC[C@@H](O)/C(C)=C/[C@@H](C)CCC(=C)Cc1ccccc1` showed an Activity (MCF7 [1]) of 21% and an Activity (U-937) of 44%.

In the case of `C=CC[C@@H](O)/C(C)=C/[C@@H](C)CCC(=CCl)Cc1ccccc1` (mixture of isomers), the Activity (MCF7 [2]) is reported as “inactive” and the Activity (U-937) is reported as 20%.
